This is an account of results in US5763485A, “Method of treating catabolic, gut-associated pathological processes and impaired host defenses” (Brigham and Women's Hospital, priority 1995, dated 1998).

The nature of series [1]: Parenteral nutrition after 5-FU injury in rats: intestinal and hematological indices. The class given is in vivo. The following applies: all drug-treated animals, independent of diet.
Description: Rats were catheterized as previously described and after a minimum of 3 hr following recovery from anesthesia, groups of animals received 100, 150 or 200 mg/kg of 5-FU by i.p. injection. […] The nutrition infusion, started 4 hr after 5-FU or saline, was continued for 4 d. at a rate of 46 ml/24 hr.
Blood and intestinal tissue were sampled and prepared for analysis as described in the examples above. The hemoglobin, white blood cell and platelet numbers were determined as measures of the general hematological toxicity of the various doses of 5-FU.
All analyses were performed as previously described in Examples 6 and 7. Statistical analyses were performed using two-way analysis of variance comparing both diets and dose of 5-FU. Unpaired t tests were used to compare two treatment groups at one dose of 5-FU. Differences were considered statistically significant at a p value of <0.05.
For series [2] the following is noted: rat. The protocol:
Lactulose is a non-metabolizable sugar that is poorly absorbed from the gastrointestinal tract. In gastrointestinal disorders such as inflammatory bowel disease, lactulose is taken up through gaps in the mucosal membrane, allowing its excretion in the urine. The amount of urinary lactulose is therefore a measure of "leakage" across the gut mucosal barrier (Menzies, Biochem. Soc. Trans. […]:1042-1047 (1974)).
Rats were treated with 5-fluorouracil as described in Example 8, above. Lactulose, 2 ml iso-osmolar solution of 100 mg/ml, was infused by gavage and urine was collected over the subsequent 24 hr and frozen. Urinary lactulose was determined enzymatically as described by Ziegler et al. (Arch. Surg. 123:1313-1319 (1988)).

Series [3] can be described thus: Urinary excretion and nitrogen balance after laparotomy in dogs. The following applies: projected intake 0.312 gm N/24 hr/kg. It is filed as in vivo, dog.
Description: Urine excreted during the 24 hours of infusion was collected in the closed urinary collecting system and stored in acidified, refrigerated containers. Aliquots were stored frozen at -20° C. for batch analysis.
All solutions were infused at the rate of 4 ml/minute/kg. Five control animals received 0.9% saline. Amino acid solutions (Table V) containing BCCA's at three different concentrations (11%, 22%, or 44% of total amino acids) were prepared by adding amino acids to an 8.5% standard amino acid formula, FreAmine III (American McGaw, Irvine, Calif.). The total BCAA infusion rates were 0.46, 0.92, and 1.84 grams/24 hours/kg, respectively. All three amino acid solutions were isonitrogenous, providing approximately 0.624 grams of nitrogen/24 hours/kg, with a constant ratio of valine to leucine to isoleucine (1: 1.38:1.05). Nine animals received an 11% BCAA solution which was made by dissolving a mixture of non-essential amino acids (NEAA) in 2.13% FreAmine III to make a solution that provided 0.624 grams of nitrogen/24 hours/kg. […] Six animals received 4.25% FreAmine III alone (22% BCAA). The final seven animals received 2.13% FreAmine III supplemented with enough BCAA's to make a 44% solution. […] All solutions were sterilized by passage through a 0.22 uM filter (Millipore, Millis, Mass.) and stored overnight at 4° C. prior to administration. […]
For series [4] the following is noted: intravenous feeding regimen; cited from earlier work.

Residues, ends and D or L forms follow the SMILES beside them.

Consider `O=c1[nH]cc(F)c(=O)[nH]1` [5-FU, 5-fluorouracil], for which the “Circulating white blood cell and platelet counts” value in series [1] is “marked decline in the circulating white blood cell and platelet counts”. Besides, in series [2], the “Gut permeability to lactulose” value was “increase gut permeability to lactulose”; the “Time of peak increase in gut permeability” value was “between 24 and 48”.

In series [3], `NC(=O)CC[C@H](N)C(=O)O` [Glutamine, glutamine] gave a Nitrogen balance of -0.386 ± 0.086 gm/24 hr/kg and a Nitrogen excretion of 0.709 ± 0.085 gm/24 hr/kg.

For the molecule `C[C@H](N)C(=O)N[C@@H](CCC(N)=O)C(=O)O` [L-alanyl-L-glutamine] (H-Ala-Gln-OH), the Postoperative nitrogen balance entry in series [4] is recorded as “improve postoperative nitrogen balance”.
